Results reported in patent US20240299321A1, “METHODS TO SENSITIZE CANCER CELLS AND STANDARDIZED SCREENING ASSAY FOR IMMUNOTHERAPY” (THE TRUSTEES OF INDIANA UNIVERSITY, priority 2020, published 2024).

Experiments:
[1] = test system: NY-ESO-1+ MDA-MB-468 cells; experiment: HLA presentation on NY-ESO-1+ MDA-MB-468 cells (flow cytometry, confocal); assay type: cell-based, human; conditions: for HLA-A2 antigen presentation (confocal images): 1 μM, 48 h, FIG. 4F; for HLA levels on MDA-MB-468 cells (MFI): flow cytometry
Protocol: Flow Cytometry: Sample acquisition was done using LSR Fortessa X-20 or LSR Fortessa (BD Biosciences) and data were analyzed using FlowJo v10.6.0 software. Live/dead cells were assessed using SYTOX Blue (Invitrogen, Dilution 1:100). For cell staining involving cell permeabilization, the BD cytofix/cytoperm fixation permeabilization kit (BD Biosciences) was used. The PBS buffer containing 0.5% BSA and 10% FBS were used to dilute antibodies. The antibodies used in flow cytometrical analyses include: […] The compensation was performed using CompBeads for negative control (BD Biosciences), anti-mouse Ig,κ (BD Biosciences), anti-rat Ig,κ and anti-hamster Ig,κ (BD Biosciences). The beads were stained with the corresponding antibodies separately under the same conditions as the cells were stained in each experiment. SYTOX Blue reagent was used to stain dead cells. Half of the live cells were incubated at 60° C. for 2 min to enable membrane permeable and then mixed with the other half incubated at 37° C. The mixed cells were stained with SYTOX Blue for 15 mins and used for compensation. For all the data analysis, doublet exclusion was performed and only single cells were analyzed. Dead cell populations were also excluded from analysis if the experiment were not involved in cell killing. One million events per sample were collected for immune profiling analysis in the animal experiments. For all in vitro experiments, at least ten thousand events per sample were collected for flow cytometry analysis. Confocal Microscopy: OVA+ EO771 and NY-ESO-1+ MDA-MB-468 cells were seeded at 5×10^3 cell/well in the 8-well slide (Millicell EZ slide, […]) and treated with 1 μM drug (GSK-LSD1, CUDC-101 or BML-210) for 48 h. FITC-conjugated anti-mouse H-2Kb antibody (Biolegend, dilution 1:50) and FITC-conjugated anti-HLA-A2 (Biolegend, dilution 1:50) were used to stain OVA+ EO771 and NY-ESO-1+ MDA-MB-468 cells, respectively, for 2 h. For cell nucleus staining, cells were incubated with 0.5% Triton X-100/PBS for 10 min and stained with DAPI (Sigma-Aldrich, dilution 1:100) for 15 min. The slides were rinsed in PBS twice and mounted with ProLong Gold anti-fade mountant (Invitrogen, P36930). Fluorescence images were captured using Leica TCS SP8 (upright high speed multiphoton) confocal imaging system. 3-D images were analyzed by the Imaris x64 8.1.2 software.

[2] = test system: PDOs from breast cancer patients; experiment: Patient-derived organoids co-cultured with autologous CD8+ T cells; assay type: cell-based, human; conditions: for T cell cytotoxicity: PDO2 and PDO7
Protocol: Breast tumor organoid culture: Single cells isolated from EO771-derived tumors in tumor-bearing C57BL/6 mice were suspended into cold mouse breast cancer culture medium containing 10% Matrigel (Corning) with a concentration of 2×10^5 cells ml^−1. The cells (2 ml) were seeded into each well of pre-warmed 6-well microplate with ultra-low attachment surface (Corning) and cultured at 37° C. with 5% CO2. The same volume of fresh culture medium was added every other day. After 7-day culture, tumor organoids were collected using cell strainers with pore size of 70 and 150 μm. For human tumor organoid culture, 2 ml of NY-ESO-1+ MDA-MB-468 cells with a concentration of 2×10^5 cells ml-1 were seeded into each well of the prewarmed 6-well microplate with ultra-low attachment surface. The cells were cultured for two days to generate tumor spheroids. The resulting spheroids were mixed with cancer associated fibroblasts (CAFs) with a ratio of 2:1 (tumor cells versus CAFs) and cultured in the human breast cancer organoid culture medium3 for 5 days. Finally, the MDA-MB-468 tumor organoids with diameter of 70˜150 μm were used for co-culture with NY-ESO-1-specific human CD8+ T cells (ASTARTE Biologics). Patient-derived organoids (PDOs) were cultured following the same procedures as mouse EO771 tumor organoids using human breast cancer organoid culture medium.
Cytotoxicity of CD8+ T cells in the co-culture with tumor organoids We generated mouse EO771 (Luc+OVA+) cell line that presents OVA257-264 antigen (from chicken ovalbumin) and human MDA-MB-468 (NY-ESO-1+) cell line that presents NY-ESO-1 antigen for use in the T cell-mediated cytotoxicity assay. OVA-specific CD8+ T cells were isolated from the spleen of OT-I mouse that contains transgenic inserts of Tcra-V2 and Tcrb-V5 genes. The transgenic T cell receptor can recognize the ovalbumin peptide SIINFEKL (OVA257-264; SEQ ID NO: 55). Anti-NY-ESO-1 human CD8^+ T cells (CELLERO™) were used to recognize the NY-ESO-1+ MDA-MB-468 cells. Autologous human CD8+ T cells were isolated from patient tumor tissues and amplified in the DMEM/F12 medium supplemented with 10% FBS, 2 mM Ultraglutamine I, 1% penicillin/streptomycin and 10 ng mL-1 of human IL2 for 7 days. The CD8+ T cells were stimulated by the T-activator CD3/CD28 Dynabeads (Gibco, 11452D for mouse and 11131D for human) for 48 h prior to use for cytotoxicity assay. Mouse and human tumor organoids with diameter between 70 and 150 μm were collected and mixed with corresponding CD8+ T cells in DMEM/F12 medium supplemented with 10% FBS, 2 mM Ultraglutamine I, 1% penicillin/streptomycin and 10 ng mL-1 IL2 (Biolegend, mouse: 575402; human: 589102) at a ratio of organoids versus T cells at 1:200 in the microplates with ultra-low attachment surface. The cells were co-cultured for 24 h and subject to further analyses, such as optical and fluorescence imaging, luciferase assay or flow cytometry.
There is an unmet clinical need to predict responsiveness to new cancer immunotherapy. Both syngeneic mouse models and humanized patient-derived xenograft (PDX) models are time-consuming and not cost-efficient. Here, we wanted to apply the standardized tumor organoid model in this study to predict the therapeutic responses to BML-210, CUDC-101 and GSK-LSD1. In this setting, autologous CD8+ T cells were isolated from patient tumor tissues and amplified for a week. Patient-derived organoids (PDOs) were generated from 10 patients with breast cancer (Table 2). The PDOs from each patient were characterized and compared with their originating tumors using Hematoxylin and eosin (H&E) staining and immunofluorescence imaging analysis. EpCAM and SMA were used as biomarkers to identify tumor epithelial cells and cancer-associated fibroblast cells, respectively, which are the main components of a breast tumor tissue. […] We were able to isolate reasonable numbers (>1×10^5) of autologous T cells from 8 out of 10 breast tumor tissues. […]

[3] = PDO1, PDO3, PDO4, PDO5 and PDO8, 48 h pretreatment

Row | SMILES | HLA-A2 antigen presentation (confocal images) [1] | HLA levels on MDA-MB-468 cells (MFI) [1] | T cell-mediated cytotoxicity [2, 3] | T cell cytotoxicity [2] | T cell-mediated cytotoxicity ([2]; PDO6)
1 | c1ccc([C@@H]2C[C@H]2NC2CCNCC2)cc1 [GSK-LSD1] | boosted up the antigen presentation | increased | significantly higher T cell-mediated cytotoxicity | only moderate increases (statistically not significant) | higher T cell-mediated cytotoxicity
2 | C#Cc1cccc(Nc2ncnc3cc(OC)c(OCCCCCCC(=O)NO)cc23)c1 [CUDC-101] | boosted up the antigen presentation | increased | significantly higher T cell-mediated cytotoxicity | only moderate increases (statistically not significant) | modest effect
3 | Nc1ccccc1NC(=O)CCCCCCC(=O)Nc1ccccc1 [BML-210] | boosted up the antigen presentation | much higher levels | significantly higher T cell-mediated cytotoxicity | only moderate increases (statistically not significant) | higher T cell-mediated cytotoxicity
